Experimental findings from patent US9309242B2, “Substituted pyrido[2,3-b]pyrazines as FGFR kinase inhibitors” (priority 2011, dated 2016) are described below.

The structures appear in SMILES notation. Structures can show the parent of a compound that is named as a salt. Where two headings read alike, the source gives them in different places. A value given as a limit tells only on which side of the number the result lay.

One series has as its target FGFR1 (h) (Homo sapiens, UniProt P11362). In words: FGFR1 (enzymatic assay), TR-FRET. Format: biochemical. Particulars: read-out: FGFR 1 pIC50 (converted).
In another series the target is FGFR2 (h) (Homo sapiens, UniProt P21802). As to the kind of experiment: FGFR2 (enzymatic assay), TR-FRET. The class given is biochemical. Particulars: enzymatic assay, read-out: FGFR 2 pIC50 (converted). In a few lines:
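Human FGFR2 (150 ng/ml) was incubated with 500 nM Btn-Flt3 substrate and 0.4 μM ATP in 50 mM HEPES pH 7.5, 6 mM MnCl2, 1 mM DTT, 0.1 mM Na3VO4, 0.01% Triton-X-100. Compound was present at 1% DMSO final.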
On the technique in general: TR-FRET usually uses a lanthanide donor and a delayed reading to cut background.

The target of a further series is FGFR3 (h) (Homo sapiens, UniProt P22607). As to the kind of experiment: FGFR3 (enzymatic assay), TR-FRET. Format: biochemical. The note with it: read-out: FGFR 3 pIC50 (converted). The text has this:
Time-Resolved Fluorescence Resonance Energy Transfer (TR-FRET) signal (ex340 nm.

Another series addresses FGFR4 (h) (Homo sapiens, UniProt P22455). As to the kind of experiment: FGFR4 (enzymatic assay), TR-FRET. Format: biochemical. The note with it: FGFR 4 pIC50, enzymatic assay.
For a further series, the target named is KDR (h) (Homo sapiens, UniProt P35968). In words: KDR (VEGFR2) (enzymatic assay), TR-FRET. Format: biochemical. The note with it: read-out: VEGFR 2 (KDR) pIC50 (converted). A digest of the protocol:
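Human KDR (150 ng/ml) was reacted with 500 nM Btn-Flt3 and 3 μM ATP in 50 mM HEPES pH 7.5, 6 mM MnCl2, 1 mM DTT, 0.1 mM Na3VO4, 0.01% Triton X-100, 1% DMSO, for 120 min at room temperature. Phosphorylation detected by TR-FRET (Eu-anti-P-Tyr/SA-XL665, 60 min), read in RFU.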

Series [1] addresses T1, Ba/F3-FGFR1-transfected cells (Homo sapiens, UniProt P11362).
T1 construct: BAF3-FGFR1 (MIN IL3) pIC50; other: minus IL3
In words: Ba/F3-FGFR1 (minus IL3) cellular proliferation assay, Alamar Blue. Format: cell-based. A digest of the protocol:
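Compound is dispensed first, then FGFR1-transfected Ba/F3 cells are added at 20000 per well in phenol red-free RPMI-1640 containing 10% FBS. After 24 h at 37 °C, Alamar Blue is added for 4 h and fluorescence is measured at 540/590 nm.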
For orientation: Alamar Blue is a resazurin reagent that responds to reducing activity.

Series [2] relates to Ba/F3-FGFR1-transfected cells. As to the kind of experiment: Ba/F3-FGFR1 (plus IL3) cellular proliferation assay, counterscreen with 10 ng/ml murine IL3. The class given is cell-based. Particulars: for BAF3-FGFR1 (PLUS IL3) pIC50: plus IL3 (10 ng/ml murine IL3, counterscreen); for IC50: read-out: BAF3-FGFR1 (PLUS IL3) pIC50 (converted). A digest of the protocol: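 Ba/F3-FGFR1 cells (20000/well) in RPMI-1640 with 10% FBS exposed to compound for 24 h at 37° C., 5% CO2, then Alamar Blue (resazurin) added for 4 h; fluorescence read at ex 540/em 590 nm. Counterscreen run identically with 10 ng/ml murine IL3.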
For orientation: Counterscreens check selectivity or assay interference.

Series [3] has as its target T2, Ba/F3-FGFR3-transfected cells (Homo sapiens, UniProt P22607).
T2 construct: BAF3-FGFR3 (MIN IL3) pIC50; other: minus IL3
As to the kind of experiment: Ba/F3-FGFR3 (minus IL3) cellular proliferation assay, Alamar Blue. The class given is cell-based. In a few lines: (§1)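 Compound dilutions were dispensed first, then 20000 FGFR3-transfected Ba/F3 cells per well in serum-containing RPMI-1640 were added. After 24 h incubation at 37° C, Alamar Blue was applied for 4 h before relative fluorescence units were recorded. In the minus-IL3 format cells grow without cytokine; the other format contains 10 ng/ml murine IL3.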

For series [4], the system named is Ba/F3-FGFR3-transfected cells. As to the kind of experiment: Ba/F3-FGFR3 (plus IL3) cellular proliferation assay, counterscreen with 10 ng/ml murine IL3. The note with it: for BAF3-FGFR3 (PLUS IL3) pIC50: plus IL3 (10 ng/ml murine IL3, counterscreen); for IC50: read-out: BAF3-FGFR3 (PLUS IL3) pIC50 (converted). The class given is cell-based. A digest of the protocol:
as §1

Series [5] concerns the target T3, Ba/F3-KDR-transfected cells (Homo sapiens, UniProt P35968).
T3 construct: BAF3-KDR (MIN IL3) pIC50; other: minus IL3
In words: Ba/F3-KDR (minus IL3) cellular proliferation assay, Alamar Blue. Format: cell-based. In a few lines:
(§2)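 Ba/F3-KDR-transfected cells, 20000 per well in phenol red free RPMI-1640 with 10% FBS, exposed to compound 24 hours at 37° C, 5% CO2; Alamar Blue then added for 4 hours and fluorescence read (ex. 540 nm, em. 590 nm). Plus-IL3 counterscreen run identically with 10 ng/ml murine IL3.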

The subject of series [6] is Ba/F3-KDR-transfected cells. As to the kind of experiment: Ba/F3-KDR (plus IL3) cellular proliferation assay, counterscreen with 10 ng/ml murine IL3. The class given is cell-based. Particulars: for BAF3-KDR (PLUS IL3) pIC50: plus IL3 (10 ng/ml murine IL3, counterscreen); for IC50: read-out: BAF3-KDR (PLUS IL3) pIC50 (converted). A digest of the protocol:
as §2

The target in series [7] is Ba/F3-FGFR4-transfected cells (Homo sapiens, UniProt P22455). In words: Ba/F3-FGFR4 cellular proliferation assay, Alamar Blue. Format: cell-based. A digest of the protocol:
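Ba/F3-FGFR4 cells (20000/well) in phenol red-free RPMI-1640 with 10% FBS are exposed to compound for 24 h at 37 °C, 5% CO2. Alamar Blue (resazurin) is then added for 4 h and fluorescence read at ex 540/em 590 nm.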

The mark [8] stands for this setting: average values if tested multiple times.

Sequence of FGFR3 (h) (P22607 23-806): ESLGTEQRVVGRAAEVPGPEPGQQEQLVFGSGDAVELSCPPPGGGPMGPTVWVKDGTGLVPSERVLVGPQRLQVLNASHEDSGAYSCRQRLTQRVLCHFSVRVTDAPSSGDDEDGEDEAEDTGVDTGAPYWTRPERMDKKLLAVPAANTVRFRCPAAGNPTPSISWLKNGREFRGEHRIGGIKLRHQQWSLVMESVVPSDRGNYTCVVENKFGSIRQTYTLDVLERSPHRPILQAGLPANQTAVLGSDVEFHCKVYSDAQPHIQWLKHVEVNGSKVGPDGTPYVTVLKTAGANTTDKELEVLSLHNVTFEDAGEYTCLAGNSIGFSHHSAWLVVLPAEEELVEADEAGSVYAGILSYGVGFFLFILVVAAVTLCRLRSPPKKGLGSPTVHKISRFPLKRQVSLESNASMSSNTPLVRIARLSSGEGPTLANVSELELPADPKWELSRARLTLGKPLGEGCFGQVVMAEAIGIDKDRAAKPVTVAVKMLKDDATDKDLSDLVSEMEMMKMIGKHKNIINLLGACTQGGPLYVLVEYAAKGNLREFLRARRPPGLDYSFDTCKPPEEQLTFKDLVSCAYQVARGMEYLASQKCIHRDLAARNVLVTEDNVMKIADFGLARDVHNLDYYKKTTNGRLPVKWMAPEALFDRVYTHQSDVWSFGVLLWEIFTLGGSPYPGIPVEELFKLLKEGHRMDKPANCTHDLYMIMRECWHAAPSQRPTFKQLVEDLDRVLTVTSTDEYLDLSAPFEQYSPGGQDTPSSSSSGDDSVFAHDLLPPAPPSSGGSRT
Sequence of FGFR4 (h) (P22455 22-802): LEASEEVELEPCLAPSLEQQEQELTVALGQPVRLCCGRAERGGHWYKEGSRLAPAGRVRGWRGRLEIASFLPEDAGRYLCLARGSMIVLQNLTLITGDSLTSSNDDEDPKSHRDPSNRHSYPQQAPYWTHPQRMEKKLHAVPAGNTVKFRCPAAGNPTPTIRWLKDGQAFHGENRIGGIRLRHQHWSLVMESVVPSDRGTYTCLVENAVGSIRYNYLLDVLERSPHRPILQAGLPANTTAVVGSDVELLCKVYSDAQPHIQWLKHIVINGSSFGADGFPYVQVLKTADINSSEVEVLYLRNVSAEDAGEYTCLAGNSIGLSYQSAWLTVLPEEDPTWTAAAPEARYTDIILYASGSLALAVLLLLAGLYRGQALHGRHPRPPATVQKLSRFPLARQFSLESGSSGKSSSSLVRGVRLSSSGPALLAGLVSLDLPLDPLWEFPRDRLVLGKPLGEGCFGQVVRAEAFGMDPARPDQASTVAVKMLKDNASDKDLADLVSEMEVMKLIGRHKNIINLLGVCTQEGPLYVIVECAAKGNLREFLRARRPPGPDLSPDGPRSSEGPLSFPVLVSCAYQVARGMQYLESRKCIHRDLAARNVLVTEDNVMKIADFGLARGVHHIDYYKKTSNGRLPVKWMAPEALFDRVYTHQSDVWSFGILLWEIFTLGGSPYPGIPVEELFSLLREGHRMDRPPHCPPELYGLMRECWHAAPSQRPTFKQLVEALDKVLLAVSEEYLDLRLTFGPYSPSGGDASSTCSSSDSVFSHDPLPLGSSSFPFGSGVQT
Sequence of KDR (h) (P35968 20-1356): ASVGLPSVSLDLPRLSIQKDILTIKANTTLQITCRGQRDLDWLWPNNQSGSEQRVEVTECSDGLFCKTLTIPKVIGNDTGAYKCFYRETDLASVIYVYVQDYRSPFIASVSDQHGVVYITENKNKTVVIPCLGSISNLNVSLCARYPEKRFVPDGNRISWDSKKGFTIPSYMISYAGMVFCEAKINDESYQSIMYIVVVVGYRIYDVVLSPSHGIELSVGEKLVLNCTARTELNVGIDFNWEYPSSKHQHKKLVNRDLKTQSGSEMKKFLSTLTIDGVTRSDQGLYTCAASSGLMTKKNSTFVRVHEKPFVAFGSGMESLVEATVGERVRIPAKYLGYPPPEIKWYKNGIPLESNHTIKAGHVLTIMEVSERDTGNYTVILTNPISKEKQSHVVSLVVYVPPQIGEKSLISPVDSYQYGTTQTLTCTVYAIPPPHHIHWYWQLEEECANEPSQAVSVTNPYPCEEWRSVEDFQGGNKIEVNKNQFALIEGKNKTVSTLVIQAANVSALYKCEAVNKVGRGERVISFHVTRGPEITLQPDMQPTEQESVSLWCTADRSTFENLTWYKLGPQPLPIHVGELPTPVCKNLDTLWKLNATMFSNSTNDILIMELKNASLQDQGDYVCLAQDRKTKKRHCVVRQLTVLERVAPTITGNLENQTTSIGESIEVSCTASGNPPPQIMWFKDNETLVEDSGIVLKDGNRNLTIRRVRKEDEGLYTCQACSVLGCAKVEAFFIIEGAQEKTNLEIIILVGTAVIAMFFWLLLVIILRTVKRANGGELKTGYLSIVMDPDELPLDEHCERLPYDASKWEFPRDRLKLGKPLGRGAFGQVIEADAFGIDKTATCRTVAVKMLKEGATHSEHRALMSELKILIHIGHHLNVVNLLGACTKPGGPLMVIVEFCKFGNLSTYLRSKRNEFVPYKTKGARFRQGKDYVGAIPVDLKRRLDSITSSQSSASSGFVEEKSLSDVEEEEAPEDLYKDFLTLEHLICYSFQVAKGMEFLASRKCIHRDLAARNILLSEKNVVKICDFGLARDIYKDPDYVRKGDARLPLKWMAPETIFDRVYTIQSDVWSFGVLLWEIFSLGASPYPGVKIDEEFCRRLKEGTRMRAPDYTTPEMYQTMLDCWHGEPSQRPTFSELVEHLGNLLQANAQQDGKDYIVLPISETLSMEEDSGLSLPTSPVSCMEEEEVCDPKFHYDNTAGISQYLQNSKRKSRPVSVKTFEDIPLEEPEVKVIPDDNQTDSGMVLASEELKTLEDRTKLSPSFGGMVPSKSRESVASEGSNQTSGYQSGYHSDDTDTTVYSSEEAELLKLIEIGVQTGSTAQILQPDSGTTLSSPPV
T1 sequence (P11362 whole entry, change not shown): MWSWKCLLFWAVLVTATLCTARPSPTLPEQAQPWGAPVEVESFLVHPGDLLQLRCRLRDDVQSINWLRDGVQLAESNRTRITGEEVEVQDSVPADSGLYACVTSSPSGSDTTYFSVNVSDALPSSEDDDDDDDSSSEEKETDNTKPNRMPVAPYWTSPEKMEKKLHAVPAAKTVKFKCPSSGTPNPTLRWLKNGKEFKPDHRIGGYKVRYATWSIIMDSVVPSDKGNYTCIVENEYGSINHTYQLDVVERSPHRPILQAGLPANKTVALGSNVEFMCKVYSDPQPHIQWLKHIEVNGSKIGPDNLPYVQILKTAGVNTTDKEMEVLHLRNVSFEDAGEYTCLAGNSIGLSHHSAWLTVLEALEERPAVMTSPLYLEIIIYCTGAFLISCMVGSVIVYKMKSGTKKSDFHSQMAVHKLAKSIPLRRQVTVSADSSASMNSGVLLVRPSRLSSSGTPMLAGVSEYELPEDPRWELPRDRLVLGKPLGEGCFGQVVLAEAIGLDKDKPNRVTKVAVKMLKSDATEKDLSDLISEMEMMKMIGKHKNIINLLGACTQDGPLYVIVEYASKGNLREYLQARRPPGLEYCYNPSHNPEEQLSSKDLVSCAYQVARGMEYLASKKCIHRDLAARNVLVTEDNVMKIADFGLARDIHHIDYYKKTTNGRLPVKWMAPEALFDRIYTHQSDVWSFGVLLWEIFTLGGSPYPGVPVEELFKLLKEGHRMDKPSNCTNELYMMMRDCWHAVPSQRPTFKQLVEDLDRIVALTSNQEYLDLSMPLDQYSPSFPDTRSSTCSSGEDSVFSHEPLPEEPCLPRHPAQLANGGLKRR
T3 sequence (P35968 whole entry, change not shown): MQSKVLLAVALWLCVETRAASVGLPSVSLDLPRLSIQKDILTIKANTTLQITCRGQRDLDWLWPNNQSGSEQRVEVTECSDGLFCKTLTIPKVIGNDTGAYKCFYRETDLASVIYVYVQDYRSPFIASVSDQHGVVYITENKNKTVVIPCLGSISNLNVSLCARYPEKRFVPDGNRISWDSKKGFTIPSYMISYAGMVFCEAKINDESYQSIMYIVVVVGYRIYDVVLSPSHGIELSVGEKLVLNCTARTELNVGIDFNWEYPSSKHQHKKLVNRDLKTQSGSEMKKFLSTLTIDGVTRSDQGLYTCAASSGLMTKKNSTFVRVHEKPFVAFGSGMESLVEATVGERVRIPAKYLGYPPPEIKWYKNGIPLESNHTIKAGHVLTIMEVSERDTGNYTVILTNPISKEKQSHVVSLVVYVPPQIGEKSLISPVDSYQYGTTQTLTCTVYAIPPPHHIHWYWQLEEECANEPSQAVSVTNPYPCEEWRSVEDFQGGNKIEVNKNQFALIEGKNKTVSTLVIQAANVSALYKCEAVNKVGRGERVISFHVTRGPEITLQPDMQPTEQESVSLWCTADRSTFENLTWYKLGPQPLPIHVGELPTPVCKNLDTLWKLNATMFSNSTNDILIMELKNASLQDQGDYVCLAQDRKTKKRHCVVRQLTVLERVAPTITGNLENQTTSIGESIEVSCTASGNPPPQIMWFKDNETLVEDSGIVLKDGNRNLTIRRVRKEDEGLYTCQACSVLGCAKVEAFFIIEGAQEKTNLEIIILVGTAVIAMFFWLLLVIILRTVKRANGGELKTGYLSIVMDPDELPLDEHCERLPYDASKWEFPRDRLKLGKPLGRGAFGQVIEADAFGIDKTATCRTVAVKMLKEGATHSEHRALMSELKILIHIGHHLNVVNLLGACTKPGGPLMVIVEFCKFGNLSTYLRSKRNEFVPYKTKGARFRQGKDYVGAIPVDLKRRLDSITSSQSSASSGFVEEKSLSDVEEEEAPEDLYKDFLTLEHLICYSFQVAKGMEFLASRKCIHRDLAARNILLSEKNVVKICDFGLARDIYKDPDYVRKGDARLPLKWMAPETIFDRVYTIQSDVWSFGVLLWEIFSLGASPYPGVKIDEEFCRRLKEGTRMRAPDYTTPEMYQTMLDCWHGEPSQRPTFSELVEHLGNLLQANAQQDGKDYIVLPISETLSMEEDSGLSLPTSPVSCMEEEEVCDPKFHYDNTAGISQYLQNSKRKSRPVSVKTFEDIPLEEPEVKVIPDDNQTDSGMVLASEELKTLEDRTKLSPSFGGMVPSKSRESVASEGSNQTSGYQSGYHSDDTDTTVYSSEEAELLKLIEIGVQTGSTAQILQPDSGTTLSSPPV

As a reminder, the melting point is the temperature, or range, at which the solid turns liquid. `COc1cc(OC)cc(N(Cc2ncc[nH]2)c2ccc3ncc(-c4cnn(C)c4)nc3n2)c1` (as salt: hydrochloride) (hydrate or solvate) [Compound 24] showed a melting point of more than 260 °C.
For the molecule `COc1cc(OC)c(F)c(N(Cc2ncc[nH]2)c2ccc3ncc(-c4cnn(C)c4)nc3n2)c1` [23-Sulfate salt], the IC50 at FGFR1 (h) (setting [8]) was 0.589 nM; on FGFR2 (h) (setting [8]), 2.09 nM; on FGFR3 (h) (setting [8]), 1.12 nM; against FGFR4 (h) (setting [8]) it was 1.26 nM; at KDR (h) (setting [8]), 7.94 nM. Moreover, the “BAF3-FGFR1 (MIN IL3) pIC50” value in series [1] was 8.94. Also, the “BAF3-FGFR1 (PLUS IL3) pIC50” value in series [2] was less than 5. The “BAF3-FGFR3 (MIN IL3) pIC50” value in series [3] is approximately 8.64. In addition, in series [4], the “BAF3-FGFR3 (PLUS IL3) pIC50” value is recorded as less than 5. Further, the “BAF3-KDR (MIN IL3) pIC50” value in series [5] was found to be 6.51. Also, in series [6], the “BAF3-KDR (PLUS IL3) pIC50” value is recorded as less than 5. Further, in [7], the “BAF3-FGFR4 pIC50” value came to 7.88.
Turning to `COc1cc(OC)c(F)c(N(Cc2ncc[nH]2)c2ccc3ncc(-c4cnn(C)c4)nc3n2)c1` [23-phosphate salt], the IC50 at FGFR1 (h) (setting [8]) was 0.468 nM; at FGFR2 (h) (setting [8]), 1.91 nM; at FGFR3 (h) (setting [8]), 1.1 nM; on FGFR4 (h) (setting [8]), 0.977 nM; at KDR (h) (setting [8]), 7.94 nM. In addition, in series [1], the “BAF3-FGFR1 (MIN IL3) pIC50” value is 8.83. In addition, in series [2], the “BAF3-FGFR1 (PLUS IL3) pIC50” value was less than 5. In addition, the “BAF3-FGFR3 (MIN IL3) pIC50” value in series [3] is listed as approximately 8.64. Moreover, the “BAF3-FGFR3 (PLUS IL3) pIC50” value in [4] is less than 5. In series [5], the “BAF3-KDR (MIN IL3) pIC50” value turned out to be 7.03. For the same molecule, the “BAF3-KDR (PLUS IL3) pIC50” value in series [6] is less than 5. In addition, the “BAF3-FGFR4 pIC50” value in [7] worked out at 8.15.
Take `COc1cc(OC)c(F)c(N(Cc2ncc[nH]2)c2ccc3ncc(-c4cnn(C)c4)nc3n2)c1` [23-fumarate salt]: the IC50 was 0.479 nM at FGFR1 (h) (setting [8]); 1.51 nM at FGFR2 (h) (setting [8]); approximately 0.891 nM at FGFR3 (h) (setting [8]); 0.794 nM at FGFR4 (h) (setting [8]); 5.13 nM at KDR (h) (setting [8]). In [1], the “BAF3-FGFR1 (MIN IL3) pIC50” value was determined as 8.85. Moreover, the “BAF3-FGFR1 (PLUS IL3) pIC50” value in series [2] is on record as less than 5. In addition, the “BAF3-FGFR3 (MIN IL3) pIC50” value in series [3] is recorded as approximately 8.67. Moreover, the “BAF3-FGFR3 (PLUS IL3) pIC50” value in series [4] was less than 5. Moreover, the “BAF3-KDR (MIN IL3) pIC50” value in [5] is 6.67. Also, the “BAF3-KDR (PLUS IL3) pIC50” value in series [6] was less than 5. In addition, the “BAF3-FGFR4 pIC50” value in [7] worked out at 7.94.
With `COc1cc(OC)c(F)c(N(CC(N)=O)c2ccc3ncc(-c4cnn(C)c4)nc3n2)c1` [Compound 239], the IC50 at FGFR1 (h) was 5.37 nM; at FGFR2 (h) it was 7.94 nM; at FGFR3 (h), 5.25 nM; on FGFR4 (h), 35.5 nM; on KDR (h) it was 148 nM; in [2], more than 10 µM. Moreover, the IC50 in [4] and in series [6] was more than 10 µM in each case. In addition, in [1], the “BAF3-FGFR1 (MIN IL3) pIC50” value worked out at 6.44. Also, the “BAF3-FGFR3 (MIN IL3) pIC50” value in series [3] is given as 6.51. Further, in series [5], the “BAF3-KDR (MIN IL3) pIC50” value was 5.27. In series [7], the “BAF3-FGFR4 pIC50” value came out at 5.87.
For the molecule `COc1cc(OC)cc(N(Cc2ncc[nH]2)c2ccc3ncc(-c4cnn(C)c4)nc3n2)c1` [24-hydrochloric acid salt], the IC50 is 0.776 nM on FGFR1 (h) (setting [8]); 1.41 nM on FGFR2 (h) (setting [8]); 1.02 nM on FGFR3 (h) (setting [8]); 1.2 nM on FGFR4 (h) (setting [8]); 7.24 nM on KDR (h) (setting [8]). Besides, the “BAF3-FGFR1 (MIN IL3) pIC50” value in series [1] is on record as 8.16. Also, the “BAF3-FGFR1 (PLUS IL3) pIC50” value in series [2] is on record as less than 5. For the same molecule, the “BAF3-FGFR3 (MIN IL3) pIC50” value in [3] came to 7.96. The “BAF3-FGFR3 (PLUS IL3) pIC50” value in series [4] was less than 5. Further, the “BAF3-KDR (MIN IL3) pIC50” value in [5] is 5.92. Further, in [6], the “BAF3-KDR (PLUS IL3) pIC50” value is listed as less than 5. In addition, the “BAF3-FGFR4 pIC50” value in series [7] turned out to be 7.77.
`CNCCn1/c(=N/c2c(Cl)c(OC)cc(OC)c2Cl)ccc2ncc(-c3cnn(C)c3)nc21` [Compound 82]: the IC50 at FGFR1 (h) (setting [8]) was 11.7 nM; at FGFR2 (h) (setting [8]) it was 10.7 nM; on FGFR3 (h) (setting [8]) it was 14.1 nM; against FGFR4 (h) (setting [8]), 182 nM; at KDR (h) (setting [8]) it was 490 nM; in series [2], more than 10 µM. The IC50 in series [4] and in series [6] was more than 10 µM in each case. Further, the “BAF3-FGFR1 (MIN IL3) pIC50” value in [1] worked out at 6.67. For the same molecule, the “BAF3-FGFR3 (MIN IL3) pIC50” value in series [3] is approximately 6.61. The “BAF3-KDR (MIN IL3) pIC50” value in series [5] is recorded as less than 5. Also, in [7], the “BAF3-FGFR4 pIC50” value was found to be 5.43.
